Test [1] concerns Candida albicans #10231. The test is described as follows: Challenge Test (Antimicrobial Effectiveness Test), yeast inoculum. Type of test: cell-based. Also on record: key to Challenge Test result: Yeast C. albicans: Fail: Recovery of surviving organisms at 14 days was a failing result for the challenge test. To be noted: for Challenge Test result: Yeast C. albicans: stabilized acrylic latex A. Here is the method: The following cultures were obtained from American Type Culture Collection (ATCC) at 10801 University Boulevard, Manassas, Va. 20110-2209: Escherichia coli #11229, Pseudomonas aeruginosa #15442, Candida albicans #10231, Aspergillus niger #6275.
The yeast inoculum was 0.10 ml of a 72-hr±4 hr culture of C. albicans in 25 grams of sample to give approximately 2×10^5 CFU/g. The C. albicans culture was grown in Potato Dextrose Broth (Difco Laboratories, Detroit, Mich.) at 28° C.
(§1) Each of the 25-g samples were inoculated or challenged with 0.10 ml of the bacterial inoculum, the yeast inoculum, and the mold inoculum respectively on day-0 and day-14. All samples were stored at ambient temperature. Each sample (10 microliter) was streaked on appropriate agar plates (bacteria on Tryptic Soy Agar (Difco Laboratories, Detroit, Mich.) plates with neutralizer and yeast/mold on Potato Dextrose Agar (Difco Laboratories, Detroit, Mich.) plates with neutralizer) on day-1, day-2, day-3, day-7, day-14, day-15, day-16, day-17, day-21, and day-28 to test for survivors. Streaked plates were incubated at appropriate temperature and time (48-hr at 35±2° C. for bacteria and 72-hr at 28±2° C. for yeast/mold). On day-14, each sample was re-inoculated with appropriate inoculum after streaking on agar plates. Plates were read after incubation time. Recovery of surviving organisms at 14 days was a failing result for the challenge test.
Biocides were always added after the reaction has been completed and after the batch has been cooled to <50° C. The desired temperature was dependent on the specific biocide. Many biocides become deactivated if exposed to high temperatures for an extended time. Each biocide was diluted with about 5× its weight with DI water and slowly added to the batch with good agitation. The dilution is to prevent the biocide from shocking the latex. The batch was mixed for a minimum of 20 minutes after the biocide was added to ensure good incorporation. If any temporary destabilization to the latex had occurred, it had time to recover prior to filtration.
The Challenge Test is a qualitative laboratory procedure used to differentiate poorly and marginally preserved products from well-preserved products. Products are intentionally inoculated with test organisms and then evaluated by use of streak plating technique to determine if microbial reduction has been attained.

In test [2] the test system is Escherichia coli #11229, Pseudomonas aeruginosa #15442. Briefly: Challenge Test (Antimicrobial Effectiveness Test), bacterial inoculum (1:1 mixture). To be noted: stabilized acrylic latex A. The format is cell-based, E. coli & P. aeruginosa. On the procedure: The following cultures were obtained from American Type Culture Collection (ATCC) at 10801 University Boulevard, Manassas, Va. 20110-2209: Escherichia coli #11229, Pseudomonas aeruginosa #15442, Candida albicans #10231, Aspergillus niger #6275. The bacterial inoculum was 0.10 ml of a 1:1 mixture of the 24-hr±4 hr culture of E. coli and P. aeruginosa in 25 grams of sample to give approximately 4×10^6 CFU/g. Both E. coli culture and the P. aeruginosa culture were grown in Nutrient Broth (Difco Laboratories, Detroit, Mich.) at 35° C. Each of the 25-g samples were inoculated or challenged with 0.10 ml of the bacterial inoculum, the yeast inoculum, and the mold inoculum respectively on day-0 and day-14. All samples were stored at ambient temperature. Each sample (10 microliter) was streaked on appropriate agar plates (bacteria on Tryptic Soy Agar (Difco Laboratories, Detroit, Mich.) plates with neutralizer and yeast/mold on Potato Dextrose Agar (Difco Laboratories, Detroit, Mich.) plates with neutralizer) on day-1, day-2, day-3, day-7, day-14, day-15, day-16, day-17, day-21, and day-28 to test for survivors. Streaked plates were incubated at appropriate temperature and time (48-hr at 35±2° C. for bacteria and 72-hr at 28±2° C. for yeast/mold). On day-14, each sample was re-inoculated with appropriate inoculum after streaking on agar plates. Plates were read after incubation time. Recovery of surviving organisms at 14 days was a failing result for the challenge test. Biocides were always added after the reaction has been completed and after the batch has been cooled to <50° C. The desired temperature was dependent on the specific biocide. Many biocides become deactivated if exposed to high temperatures for an extended time. Each biocide was diluted with about 5× its weight with DI water and slowly added to the batch with good agitation. The dilution is to prevent the biocide from shocking the latex. The batch was mixed for a minimum of 20 minutes after the biocide was added to ensure good incorporation. If any temporary destabilization to the latex had occurred, it had time to recover prior to filtration. The Challenge Test is a qualitative laboratory procedure used to differentiate poorly and marginally preserved products from well-preserved products. Products are intentionally inoculated with test organisms and then evaluated by use of streak plating technique to determine if microbial reduction has been attained.

Test [3] relates to Aspergillus niger #6275. The test is described as follows: Challenge Test (Antimicrobial Effectiveness Test), mold inoculum. The format is cell-based. To be noted: stabilized acrylic latex A. On the procedure:
The following cultures were obtained from American Type Culture Collection (ATCC) at 10801 University Boulevard, Manassas, Va. 20110-2209: Escherichia coli #11229, Pseudomonas aeruginosa #15442, Candida albicans #10231, Aspergillus niger #6275. The mold inoculum was 0.10 ml of A. niger culture specimen in 25 grams of sample to give approximately 2×10^5 CFU/g. The culture specimen was obtained from 7-day-old A. niger culture grown on Sabouraud Dextrose Agar (Difco Laboratories, Detroit, Mich.) with 0.2% Triton X-100 in 0.85% saline. Each of the 25-g samples were inoculated or challenged with 0.10 ml of the bacterial inoculum, the yeast inoculum, and the mold inoculum respectively on day-0 and day-14. All samples were stored at ambient temperature. Each sample (10 microliter) was streaked on appropriate agar plates (bacteria on Tryptic Soy Agar (Difco Laboratories, Detroit, Mich.) plates with neutralizer and yeast/mold on Potato Dextrose Agar (Difco Laboratories, Detroit, Mich.) plates with neutralizer) on day-1, day-2, day-3, day-7, day-14, day-15, day-16, day-17, day-21, and day-28 to test for survivors. Streaked plates were incubated at appropriate temperature and time (48-hr at 35±2° C. for bacteria and 72-hr at 28±2° C. for yeast/mold). On day-14, each sample was re-inoculated with appropriate inoculum after streaking on agar plates. Plates were read after incubation time. Recovery of surviving organisms at 14 days was a failing result for the challenge test. Biocides were always added after the reaction has been completed and after the batch has been cooled to <50° C. The desired temperature was dependent on the specific biocide. Many biocides become deactivated if exposed to high temperatures for an extended time. Each biocide was diluted with about 5× its weight with DI water and slowly added to the batch with good agitation. The dilution is to prevent the biocide from shocking the latex. The batch was mixed for a minimum of 20 minutes after the biocide was added to ensure good incorporation. If any temporary destabilization to the latex had occurred, it had time to recover prior to filtration. The Challenge Test is a qualitative laboratory procedure used to differentiate poorly and marginally preserved products from well-preserved products. Products are intentionally inoculated with test organisms and then evaluated by use of streak plating technique to determine if microbial reduction has been attained.

Test [4] concerns C. albicans & A. niger. Briefly: Challenge Test end point on yeast and mold and Synergy Index (Kull). Type of test: cell-based. To be noted: Dowicil 75 acting alone (QA); test stabilized acrylic latex A. Here is the method:
as §1, with “On day-14, each sample was re-inoculated with appropriate inoculum after streaking on agar plates.” left out, “Recovery of surviving organisms at 14 days was a failing result for the challenge test.” left out
Synergism was determined by the method described by F. C. […] Eisman, H. D. Sylwestrowicz, and R. L. Mayer in Applied Microbiology, Volume 9, pages 538-541, 1961 using the ratio determined by • Synergy Index (SI)=Qa/QA+Qb/QB=1 is additivity, <1 is synergism, and >1 is antagonism • where, • Qa=concentration of compound A, in the mixture, producing an end point • QA=concentration of compound A, acting alone, producing an end point • Qb=concentration of compound B, in the mixture, producing an end point • QB=concentration of compound B, acting alone, producing an end point

The mark [5] stands for this setting: 0.20% Dowicil 75, 0.00% Bronopol, DN 12%, pH 6.3.
[6] abbreviates: 0.30% Dowicil 75, 0.00% Bronopol, DN 4%, pH 5.7.
Setting [7] is: 0.40% Dowicil 75, 0.00% Bronopol, DN 4%, pH 5.75.
Where [8] appears, read: 0.40% Dowicil 75, 0.00% Bronopol, DN 17%, pH 6.5.

Regarding `ClC=CC[N+]12CN3CN(CN(C3)C1)C2.[Cl-]` [Dowicil 75, 1-(3-chloroallyl)-3,5,7-triaza-1-azoniaadamantane chloride], the “Challenge Test result: Yeast C. albicans” value in test [1] (setting [5]) is recorded as “Fail”; in test [1] (setting [6]), “Pass”; in test [1] (setting [7]), “Pass”; in test [1] (setting [8]), “Fail”. The “killing of the yeast (C. albicans)” value in test [1] (0.4% DOWICIL 75, stabilized acrylic latex A with DN at 17%) is recorded as “failed to kill”. Also, in test [1] (maximum allowable level, test stabilized acrylic latex), the “control of Candida albicans” value is “failed to control”. For the same compound, the “Challenge Test result: Bacteria E. coli & P. aeruginosa” value in test [2] (setting [5]), in test [2] (setting [6]), in test [2] (setting [7]) and in test [2] (setting [8]) was “Pass” each time. The “Challenge Test result: Mold A. niger” value in test [3] (setting [5]), in test [3] (setting [6]), in test [3] (setting [7]) and in test [3] (setting [8]) was “Pass” in each case. Also, the “Compound A end-point in %” value in test [4] is given as over 0.4%.

For the origin of these results see US7718715B2, “pH-modified latex comprising a synergistic combination of biocides” (S.C. Johnson & Son, Inc., priority 2004, dated 2010).
